This note sets out measurements from publication PMC11813147, “Bioactivity assessment of peptides derived from salted jellyfish (Rhopilema hispidum) byproducts” (PLOS ONE, 2025).

The subject of the assay is angiotensin I-converting enzyme (ACE). Description: ACE inhibitory activity assay (fluorometric ACE activity assay kit). The class given is biochemical. The following applies: peptide sample 1 mg/mL; for inhibition / ACE inhibitory activity, mean±SD: 37 °C, fluorescence ex 320/em 405 nm, mean ± SD, n = 3. Here is the method: The ACE inhibitory activity assay was performed following the method outlined by Batista et al., with slight modifications, using a fluorometric angiotensin I-converting enzyme (ACE) activity assay kit from Sigma-Aldrich (catalog number CS0002), Burlington, Massachusetts, USA. In summary, 10 µ L of the sample (1 mg/mL for the peptide sample and 50 µg/mL for ramipril) was combined with 40 µ L of the ACE solution (CS0002B) in 96-well flat-bottom black plates at 37 °C for 5 min. Next, 50 µ L of the substrate solution (CS0002C) was added to this mixture to initiate the reaction. A fluorescence multiwell plate reader was used to monitor the changes in fluorescence. The sample’s fluorescence was measured every min for 5 min, with excitation at 320 nm and emission at 405 nm. All reagents, except the test sample, were prepared to assess the ACE positive control activity. A kit standard solution (CS0002D) was diluted with assay buffer (CS0002A) to create different concentrations (nmol) of the standard solution, allowing generation of a standard curve. The slope of the standard curve (RFU/nmol) and the slope of the sample kinetic curve were utilized to calculate the ACE activity using the following equation (3):
ACEactivitynmol/min=Slopesample/Slopestandard×DF (3)
Where Slopesample refers to the slope of the blank-subtracted sample curve (RFU/min), Slopestandard refers to the slope of the blank-subtracted standard curve (RFU/nmol), DF is the dilution factor, and 0.1 nmol/min is equivalent to […].
In this study, the results of ACE inhibitory activity are expressed as percentages. The ACE inhibitory activity (%) was calculated using the following equation (4):
ACEinhibitoryactivity%=ACEPC–ACES/ACEPC×100 (4)
Where ACEPC represents the ACE activity of the positive control, and ACES denotes the ACE activity of the sample.

The inhibition is the percentage by which the read-out fell short of the control. A lower inhibition goes with a weak effect. For the sequence “NQKAMQELNE [P1, synthesized peptide identified from jellyfish fraction PUR20C]”, where the note is “SD”, the inhibition was determined as 6.48 ± 0.33%. For the same sequence, the ACE inhibitory activity was 6.67% (replicate 1), 6.67% (replicate 2) and 6.10% (replicate 3).

Consider “GKNCGETVWE [P9, synthesized peptide identified from jellyfish fraction PUR20C]”, for which, for the setting “SD”, the inhibition is 7.53 ± 1.74%. The sequence also yielded an ACE inhibitory activity (replicate 1) of 5.53%, an ACE inhibitory activity (replicate 2) of 8.68% and an ACE inhibitory activity (replicate 3) of 8.39%.

“KFNEVVYFL [P15, synthesized peptide identified from jellyfish fraction PUR20C]”: the “ACE inhibitory activity, mean±SD” value (SD) was 55.43±3.55^C %. Also, the ACE inhibitory activity is, setting by setting: (replicate 1) 57.63%; (replicate 2) 51.33%; (replicate 3) 57.34%.

Regarding “EIDKLPPESRP [P7, synthesized peptide identified from jellyfish fraction PUR20C]”, the inhibition (SD) stood at 8.68 ± 0.49%. Besides, the ACE inhibitory activity is given as 8.11% (replicate 1), 8.96% (replicate 2) and 8.96% (replicate 3).

Consider “MVVACVLPEA [P16, synthesized peptide identified from jellyfish fraction PUR20C]”, for which the “ACE inhibitory activity, mean±SD” value stood at 91.69%. For the setting “replicate 1”, this sequence gave an ACE inhibitory activity of 92.27%. Besides, the ACE inhibitory activity (replicate 2) is given as 89.69%. The ACE inhibitory activity (replicate 3) was 93.12%.

Regarding “LNIPKPKLNLL [P11, synthesized peptide identified from jellyfish fraction PUR20C]”, the “ACE inhibitory activity, mean±SD” value (SD) was 22.90±3.15^G %. The ACE inhibitory activity (replicate 1) came to 19.27%, the ACE inhibitory activity (replicate 2) is listed as 25.00% and the ACE inhibitory activity (replicate 3) stood at 24.42%.

As to “EQIYPMGEGDEL [P4, synthesized peptide identified from jellyfish fraction PUR20C]”, the “ACE inhibitory activity, mean±SD” value (SD) is 5.15±0.92^J %. The sequence further registered an ACE inhibitory activity (replicate 1) of 5.53%, an ACE inhibitory activity (replicate 2) of 4.10% and an ACE inhibitory activity (replicate 3) of 5.82%.

For “DAENKENVEE [P18, synthesized peptide identified from jellyfish fraction PUR20C]”, under “SD”, the “ACE inhibitory activity, mean±SD” value is given as 22.80±2.33^G %. For the same sequence, the ACE inhibitory activity was 20.13% (replicate 1), 23.85% (replicate 2) and 24.42% (replicate 3).

As for “LGAEGRSP [P13, synthesized peptide identified from jellyfish fraction PUR20C]”, the “ACE inhibitory activity, mean±SD” value (SD) is given as 20.51±1.81^G %. Besides, the ACE inhibitory activity is 21.56% (replicate 1), 18.41% (replicate 2) and 21.56% (replicate 3).

Consider “RPLAKIIP [P8, synthesized peptide identified from jellyfish fraction PUR20C]”, for which the “ACE inhibitory activity, mean±SD” value (SD) is 29.96±3.35^F %. The ACE inhibitory activity runs as follows: (replicate 1) 32.44%; (replicate 2) 26.14%; (replicate 3) 31.29%.

As for “PMETDDQPNN [P17, synthesized peptide identified from jellyfish fraction PUR20C]”, for the setting “SD”, the “ACE inhibitory activity, mean±SD” value is reported as 12.40±2.23^H %. Besides, the ACE inhibitory activity is, setting by setting: (replicate 1) 9.82%; (replicate 2) 13.54%; (replicate 3) 13.83%.

With “RARVVPMY [P6, synthesized peptide identified from jellyfish fraction PUR20C]”, the “ACE inhibitory activity, mean±SD” value (SD) is 33.68±0.59^E %. The ACE inhibitory activity by setting is: (replicate 1) 33.87%; (replicate 2) 33.01%; (replicate 3) 34.16%.

Turning to “PFTMYFLL [P14, synthesized peptide identified from jellyfish fraction PUR20C]”, under “SD”, the “ACE inhibitory activity, mean±SD” value is reported as 81.87±0.33^B %. Moreover, the ACE inhibitory activity came to 81.67% (replicate 1), 81.67% (replicate 2) and 82.25% (replicate 3).

Consider “TDSPAPSETTD [P2, synthesized peptide identified from jellyfish fraction PUR20C]”, for which the “ACE inhibitory activity, mean±SD” value (SD) was 0.85±0.33^K %. Besides, the ACE inhibitory activity was 0.66% (replicate 1), 1.24% (replicate 2) and 0.66% (replicate 3).

As to “HSVLTASYRN [P5, synthesized peptide identified from jellyfish fraction PUR20C]”, where the note is “SD”, the “ACE inhibitory activity, mean±SD” value was 29.10±3.81^F %. For the same sequence, the ACE inhibitory activity runs as follows: (replicate 1) 24.71%; (replicate 2) 31.01%; (replicate 3) 31.58%.
